Values after ≈ are worked out from the molar mass of the structure shown.
details: buffer; pH 7.4; 200.0 µM

SMILES	solubility kinetic [µg/mL]
COC(=O)c1c(NC(=O)c2ccoc2C)sc(C)c1C	< 0.6
COc1ccc(N2C(=O)/C(=C/c3ccco3)C(=O)NC2=S)cc1	48.8 (≈ 149 µM)
COCCNc1nc2c(c(=O)n(Cc3ccccc3F)c(=O)n2C)n1C	8.5 (≈ 23.5 µM)
COc1cc(OC)cc(C(=O)NC(C)CCc2ccccc2)c1 (stereo not given)	34.2 (≈ 109 µM)
Cn1nc(C(=O)NCC(c2cccs2)N2CCOCC2)c2ccccc2c1=O (stereo not given)	> 59.8
O=C(COC(=O)c1ccco1)Nc1cc(S(=O)(=O)N2CCOCC2)ccc1Cl	16.4 (≈ 38.2 µM)
N/C(=N\c1nc2ccccc2o1)NC(=O)c1ccccc1Br	< 0.2
Cc1ccc(NC(=O)CCCc2ccccc2)nc1	36.6 (≈ 144 µM)
CN1CCC2(CC1)N=C(c1ccc(F)cc1)C(=S)N2	39.8 (≈ 143 µM)
COC1C(C)=C(C)C(=O)N1Cc1ccccc1 (stereo not given)	33.9 (≈ 147 µM)
Cc1cc(C)cc(OCC(=O)OCc2cc([N+](=O)[O-])cc3c2OCOC3)c1	3.9 (≈ 10.4 µM)
CC(C)(C)CC(=O)O/N=C(\N)c1ccncc1	> 35.3
Cc1cc(C)c(C(=O)Nc2ccccc2)c(CC(C)(C)C(=O)O)c1	> 48.8
COc1ccc(-c2noc(CNC(=O)c3ccoc3C)n2)cc1	37.8 (≈ 121 µM)
CN(C)C(=O)CSc1nc2cc(S(=O)(=O)N3CCOCC3)ccc2o1	> 57.8
CCOc1ccc(NC(=O)Cc2ccc(S(=O)(=O)N3CCCCC3)cc2)cc1OCC	7 (≈ 15.7 µM)
CCc1ccc(NC(=O)/C(C#N)=C/c2ccncc2)cc1	8.8 (≈ 31.7 µM)
Cn1nccc1NC(=O)Nc1ccc(OC(F)(F)F)cc1	> 45
CNC(=O)c1cc2c(cn1)[nH]c1ccccc12	27.5 (≈ 122 µM)
C=CCOc1ccc(CNc2ccc3[nH]c(=O)[nH]c3c2)cc1	7.9 (≈ 26.7 µM)

SMILES	solubility kinetic [µg/mL]
Cc1csc(NC(=O)c2cccnc2)n1	32.5 (≈ 148 µM)
O=C(Nc1cccc(S(=O)(=O)NC2=NCCC2)c1)c1ccccc1F	> 54.2
CCCCNC(=S)N1CCN(c2ccccc2Cl)CC1	13.1 (≈ 42 µM)
CCN(CC)S(=O)(=O)c1ccc(Cl)nc1	34.3 (≈ 138 µM)
Cn1c(=O)n(CC(N)=O)c(=O)c2c1nc(Br)n2Cc1ccccc1	> 58.8
CCNc1nc(OC)nc(SCC(=O)Nc2ccccc2)n1	> 47.9
COc1ccccc1N1C(=O)CC(N(O)c2ccccc2)C1=O (stereo not given)	> 46.8
CCc1cccc(C)c1NS(=O)(=O)Cc1ccccc1	> 43.4
CC(=O)c1c(C)nc(-c2ccc(OCC(=O)Nc3ccccc3)cc2)n1O	51.3 (≈ 140 µM)
CSc1nc2ccc(NC(=O)c3ccccn3)cc2s1	0.5 (≈ 1.66 µM)
Cc1ccccc1NC(=O)COc1cccc2c1CCNC2=O	46.1 (≈ 149 µM)
CN1CCc2c(sc3nc(NCCO)n(-c4cccc(Cl)c4)c(=O)c23)C1	58.3 (≈ 149 µM)
COc1ccc(Nc2ncnc3sccc23)c(OC)c1	25.1 (≈ 87.4 µM)
CC(C)CCn1c(=O)[nH]c2ccccc21	> 30.6
O=[N+]([O-])c1cc(S(=O)(=O)NCCN2CCOCC2)ccc1Cl	> 52.5
NC(=O)C1CCN(CC(O)CSc2ccccc2)CC1 (stereo not given)	> 44.2
O=[N+]([O-])c1ncccc1OCc1ccccc1Br	5.7 (≈ 18.4 µM)
O=C(COc1ccccc1Cl)NCCCNC(=O)c1ccccn1	> 52.2
CN(C(=S)NC(=O)C1CC1)c1ccc(O)cc1	> 37.5
Cc1cc(C)c(S(=O)(=O)c2cccc(Cl)c2)c(=O)[nH]1	> 44.7

SMILES	solubility kinetic [µg/mL]
CN1CCN(c2ccc(CNC(=O)c3ccc4c(c3)OCCO4)cc2)CC1	49.7 (≈ 135 µM)
O=C1NC2(CCCCCC2)C(=O)N1Cc1c(F)cccc1Cl	9.6 (≈ 29.6 µM)
Cl.c1cncc(CNCCc2c[nH]c3ccccc23)c1	38.5
CCCCC(=O)Nc1cc([N+](=O)[O-])ccc1F	31.8 (≈ 132 µM)
Nc1ncnc(Oc2cccc(C(F)(F)F)c2)c1[N+](=O)[O-]	7.6 (≈ 25.3 µM)
CC(O)c1cccc(NC(=O)CCCc2ccccc2)c1 (stereo not given)	39 (≈ 138 µM)
Nc1cc(Cl)ccc1C(=O)OCC(=O)NCc1cccs1	7.7 (≈ 23.7 µM)
CCCCn1c(O)c(C(C)=NCc2ccc3c(c2)OCO3)c(=O)[nH]c1=O	0.6 (≈ 1.67 µM)
COc1ccc(C(=O)O/N=C(\N)c2ccccn2)cc1	> 40.7
COCCCNC(=O)C1c2ccccc2Oc2ccccc21	15.2 (≈ 51.1 µM)
O=C(COC(=O)/C=C/c1cccc(Cl)c1)Nc1ccc(N2CCOCC2)cc1	3.2 (≈ 7.98 µM)
COc1ccccc1OCCCC(=O)NCc1ccco1	> 43.4
CC(=O)Nc1ccccc1OCC(=O)NCC(F)(F)F	43.2 (≈ 149 µM)
O=C(NCc1ccccc1)C12CC3CC(CC(Br)(C3)C1)C2	6.6 (≈ 19 µM)
COc1ccc2nc3c(nc2c1)CCCC3	> 32.1
CCOC(=O)N1CCN(C(=O)c2ccc(S(=O)(=O)Nc3ccc(C)cc3)cc2)CC1	> 64.7
O=C(OCC(=O)c1ccccc1)C1=NN(c2ccccc2)C(=O)CC1	> 50.5
CC(=O)c1cccc(N=Cc2c(O)ccc3ccccc23)c1	2.3 (≈ 7.95 µM)
O=C(c1nc(SCc2ccc([N+](=O)[O-])cc2)n2ccccc12)C(F)(F)F	< 0.3
COc1ccc2cc(C#N)c(N3CCOCC3)nc2c1	4.2 (≈ 15.6 µM)

From PubChem BioAssay AID1996
